Source: PMC5659721 (Journal of medicinal chemistry, 2017)

What was measured:
[1] = target: T1, wild-type TTR (Homo sapiens, UniProt P02766); experiment: Co-crystallography / X-ray diffraction analysis of TTR·ligand complexes; settings: co-crystal structures
[2] = target: T1, wild-type TTR; experiment: Competitive fluorescence; assay type: binding; settings: 5 vs 1, 6 vs 2
[3] = target: TTR (Homo sapiens, UniProt P02766); experiment: Reversibility of binding assessed with mass spectrometry; settings: mass spectrometry (Figure S3)
[4] = target: T1, wild-type TTR; settings: orientation in T4-binding site; cited from earlier work

| covalent interaction / boronic ester formation with binding-pocket residues [1] | SMILES | also measured |
| --- | --- | --- |
| did not exhibit covalent interactions | OB(O)c1ccc(/C=C/c2cc(O)cc(O)c2)cc1 [Compound 2, 5-[(1E)-2-(4-Boronic acid)ethenyl]-1,3-benzenediol] | – |
| did not exhibit covalent interactions | OB(O)c1ccc(/C=C/c2cc(O)cc(O)c2)c(Cl)c1 [Compound 4, 5-[(1E)-2-(2-Chloro-4-boronic Acid)ethenyl]-1,3-benzenediol] | – |
| – | O=C(O)c1cccc(/C=C/c2ccc(O)cc2)c1 [Compound 5, 3-[(1E)-2-(4-Hydroxyphenyl)ethenyl]-benzoic Acid] | Kd,2 fold higher than those of stilbenes 1 and 2, respectively [2]: 3 fold |
| did not exhibit covalent interactions | O=C(O)c1cccc(/C=C/c2ccc(B(O)O)cc2)c1 [Compound 6, 3-[(1E)-2-(4-Boronic acid)ethenyl]-benzoic Acid] | Kd,2 fold higher than those of stilbenes 1 and 2, respectively [2]: 2 fold |
| did not exhibit covalent interactions | O=C(O)c1cccc(/C=C/c2ccc(B(O)O)cc2Cl)c1 [Compound 8, 3-[(1E)-2-(2-Chloro-4-boronic Acid)ethenyl]-benzoic] | – |
| – | OB(O)c1ccc(/C=C/c2ccc(B(O)O)cc2Cl)c(Cl)c1 [Compound 10, 1,1′-(1E)-(1,2-Ethenediyl)bis[2-chloro-4-boronic acid]-benzene] | reversibility of binding with TTR [3]: reversible |
| – | O=C(O)c1ccc2nc(-c3cc(Cl)cc(Cl)c3)oc2c1 [Compound 12, 2-(3,5-dichlorophenyl)-6-benzoxazolecarboxylic acid] | binding mode [4]: forward ^d |
